Measurements published in patent publication US20090012125A1, “Piperidine Derivatives, Their Process for Preparation, Their Use as Therapeutic Agents and Pharmaceutical Compositions Containing Them” (priority 2006, published 2009).

Key:
[1] = molecular target: T1, human recombinant CCR3 receptors (Homo sapiens, UniProt P51677); assay: Compound affinity at human recombinant CCR3 receptors by radioligand competition, CHO-K1 cell membranes; format: binding; details: mean of minimum 2 experiments; Cheng-Prussof correction of pIC50; 2 nM [3H] radioligand, 2 h at 37° C.; read-out: CCR3 pKi (converted)
T1 construct: expressed in transfected cells
T1 sequence (P51677 1-355): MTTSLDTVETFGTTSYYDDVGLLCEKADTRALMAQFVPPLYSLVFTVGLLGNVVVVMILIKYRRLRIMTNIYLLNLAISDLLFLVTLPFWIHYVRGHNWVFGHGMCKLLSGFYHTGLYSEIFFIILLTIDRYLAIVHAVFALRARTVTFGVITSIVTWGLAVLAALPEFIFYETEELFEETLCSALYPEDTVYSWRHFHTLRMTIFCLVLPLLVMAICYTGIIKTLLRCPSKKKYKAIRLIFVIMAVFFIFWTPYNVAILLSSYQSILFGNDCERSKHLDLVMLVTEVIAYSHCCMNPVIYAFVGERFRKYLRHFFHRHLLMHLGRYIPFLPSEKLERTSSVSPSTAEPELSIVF
Description: Determination of Compound Affinity at Human Recombinant CCR3 Receptors Assessed by Competition Of [^3H]-4-(2,4-dichloro-3-methylphenoxy)-1′-[4-(methylsulfonyl)benzoyl]-1,4′-bipiperidine for CHO-K1 Cell Membranes In Vitro
Membranes, prepared from CHO-K1 cells stably expressing recombinant human CCR3, suspended in assay buffer (50 mM Tris-Base, pH 7.4; containing sodium chloride (100 mM) and magnesium chloride (2 mM)) were incubated in the presence of 2 nM [^3H]-4-(2,4-dichloro-3-methylphenoxy)-1′-[4-(methylsulfonyl)benzoyl]-1,4′-bipiperidine, along with vehicle (1% (v/v) DMSO), 4-(4-chloro-3-methylphenoxy)-1′-[2-(methylsulfonyl)benzoyl]-1,4′-bipiperidine (to define non-specific binding) or test compound for 2 h at 37° C. in round bottomed 96-well plates. The plates were then filtered onto GF/B filter plates, pre-soaked for 1 hour in plate-coating solution (0.3% (w/v) polyethylenimine, 0.2% (w/v) BSA in de-ionised water), using a 96-well plate Tomtec cell harvester. Four washes (250 μL) with wash buffer (50 mM Tris-Base, pH 7.4 containing sodium chloride (500 mM) and magnesium chloride (2 mM)) were performed at 4° C. to remove unbound radioactivity. Plates were dried and MicroScint-O (50 μL) was added to each well. The plates were sealed (TopSeal A) and filter-bound radioactivity was measured with a scintillation counter (TopCount, Packard BioScience) using a 1 minute counting protocol.
Specific binding was determined from values of the control wells minus the values for the NSB wells for each assay plate. pIC50 values were calculated using a four parameter logistic fit (where pIC50 is defined as the negative logarithm of the concentration of compound required for 50% reduction in specific [^3H]-4-(2,4-dichloro-3-methylphenoxy)-1′-[4-(methylsulfonyl)benzoyl]-1,4′-bipiperidine binding). Data were presented as mean pKi values (calculated by applying a Cheng-Prussof correction to pIC50 values) from a minimum of 2 separate experiments.

[2] = Intrinsic clearance with human liver microsomes; format: in vitro ADME; details: human liver microsomes 1 mg protein/ml, NADPH, pH 7.4
Description: Determination of Intrinsic Clearance with Human Liver Microsomes
Frozen human liver microsomes (BD Gentest, Oxford) were defrosted and were then diluted with 0.1 M pH 7.4 phosphate buffer at 4° C. to 1 mg protein/ml. 0.45 mL aliquots of the microsome suspension were dispensed into flat-bottomed vials (1 per compound) and were allowed to come to room temperature (5 min). During the warming time, 5 μL of solution of each test compound (typically 100 μM in DMSO) was dispensed into separate vials resulting in a final DMSO concentration of 1%. 50 μL of a 10 mM solution of NADPH in phosphate buffer (0.1 M pH 7.4, 37° C.) was added to each vial to initiate metabolism.
50 μL Aliquots of the mixtures were removed at measured intervals and were immediately quenched by addition to 100 μL of methanol cooled in ice. The quenched samples were kept cold (at −20° C. or less) for at least 1 h and were then centrifuged to remove protein
The supernatant solution was analysed using quantitative LCMS for the presence of test compound. From the concentrations of test compound at different time points a T1/2 may be calculated which may be converted to an intrinsic clearance using the equation: CLint=ln 2/T1/2.

Ki [1] | CLint scaled at 1 µM [2] | Compound
79.4 nM | < 3 mL/min/kg | O=C(CCc1cccc(C(=O)O)c1)NC1CCN(Cc2ccc(Cl)c(Cl)c2)CC1 [Example 4, 3-{2-[1-(3,4-Dichloro-benzyl)-piperidin-4-ylcarbamoyl]-ethyl}-benzoic acid]
63.1 nM | < 3 mL/min/kg | O=C(CCc1ccc(C(=O)O)cc1)NC1CCN(Cc2ccc(Cl)c(Cl)c2)CC1 [Example 2, 4-{2-[1-(3,4-Dichloro-benzyl)-piperidin-4-ylcarbamoyl]-ethyl}-benzoic acid]
15.8 nM | < 3 mL/min/kg | O=C(CCc1ccc2cc(C(=O)O)ccc2c1)NC1CCN(Cc2ccc(Cl)c(Cl)c2)CC1 [Example 6, 6-{2-[1-(3,4-Dichloro-benzyl)-piperidin-4-ylcarbamoyl]-ethyl}-naphthalene-2-carboxylic acid]
